Test results taken from patent US10829798B2, “DNA-linked enzyme-coupled assays” (THE REGENTS OF THE UNIVERSITY OF CALIFORNIA, priority 2014, dated 2020).

Molecular target: T1, GT05 (UGT72B1 (Q9M156)) (Arabidopsis thaliana, UniProt Q9M156)
T1 construct: made in house; host or cells: PURExpress In Vitro Protein Synthesis Kit (NEB E6800L), cell-free transcription/translation, linear DNA amplified from pET15b construct
T1 sequence (Q9M156 1-480): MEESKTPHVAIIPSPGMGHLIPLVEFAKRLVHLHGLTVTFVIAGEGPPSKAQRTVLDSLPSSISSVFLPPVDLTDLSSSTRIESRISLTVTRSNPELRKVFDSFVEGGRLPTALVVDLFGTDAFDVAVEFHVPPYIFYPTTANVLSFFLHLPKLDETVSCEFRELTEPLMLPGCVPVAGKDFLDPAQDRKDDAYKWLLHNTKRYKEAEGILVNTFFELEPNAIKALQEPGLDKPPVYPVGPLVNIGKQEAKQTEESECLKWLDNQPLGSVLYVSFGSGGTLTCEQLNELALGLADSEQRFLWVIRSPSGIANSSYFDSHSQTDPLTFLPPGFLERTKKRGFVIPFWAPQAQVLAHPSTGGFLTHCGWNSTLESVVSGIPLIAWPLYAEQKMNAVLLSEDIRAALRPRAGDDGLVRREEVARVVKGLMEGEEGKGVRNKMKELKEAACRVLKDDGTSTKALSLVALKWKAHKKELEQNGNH
Assay: qPCR DLEnCA, cell-free transcription/translation-derived GT05
Type: biochemical
Settings: GT05 DNA 5 nM, chemical 1 mM, UDP-Glc 2 μM, probe 0.2 nM; low recovery = substrate glucosylated
Procedure: FIG. 4A-FIG. 4D. qPCR DLEnCA and substrate specificity studies. A. Chemicals used as substrates in subsequent assays: (i) known substrates of OleD; (ii) flavone library; (iii) known substrates of GT05 (UGT72B1 (Q9M156)) and GT06 (UGT89B1 (AT1 G73880)). B. DNA encoding OleD (5 nM) was incubated in a cell-free transcription/translation system for 3 hours at 37° C., followed by the addition of chemical (1 mM) and UDP-Glc (2 μM). After a subsequent incubation of 3 hours, TbGT and probe (0.2 nM) were added. After probe purification and MfeI digestion, probe integrity was identified using qPCR. Percent recovery of probe is reported (n=8; error bars=standard error). C. DNA encoding OleD (5 nM) was incubated for 3 hours at 37° C. in a cell-free transcription/translation system, followed by the addition of flavone (1 mM) and UDP-Glc (2 μM). After a subsequent incubation of 3 hours, TbGT and probe (0.2 nM) were added. After probe purification and MfeI addition, probe integrity was identified using qPCR. Percent recovery of probe is reported (n=8; error bars=standard error). D. DNA encoding OleD, GT05, or GT06 (5 nM) were incubated for 3 hours at 37° C. in a cell-free transcription/translation system, followed by the addition of chemical (1 mM) and UDP-Glc (2 μM). After a subsequent incubation of 3 hours, TbGT and probe (0.2 nM) were added. After probe purification and MfeI digestion, probe integrity was identified using qPCR. Percent recovery of probe is reported as a heat map (n=8) (specific recovery figures and percent error can be found in FIG. 16). *=p<0.05 vs. no chemical control.
PCR tubes were used for most reactions. All incubations were performed at 37° C. Assays were initiated upon the addition of linear DNA (5 nM final concentration) to 4 μl PURExpress Solution A and 3 μl PURExpress Solution B. Samples were incubated at 37° C. for 3 hours prior to addition of UDP-Glucose and chemical (1 mM final concentration) in DMSO. Samples were incubated for an additional 3 hours prior to addition of 1 unit T4 Phage β-glucosyltransferase containing 0.2 nM probe. […]

O=c1c(O)c(-c2ccc(O)cc2)oc2cc(O)cc(O)c12 [I, kaempferol]
recovery of probe: 32%
